Patent US20260265538A1, “Aqueous Industrial Product Stabilized Against Microbial Contamination” (Thor GmbH, priority 2023, published 2026)
Where a name gives a salt, the structure may show the parent alone.

System: Bacteria mixture 1 (Pseudomonas genus)
Test: Repetitive stress test of paints with bacteria mixture 1, semiquantitative evaluation (examples 2 and 3)
Type: cell-based
Text: Paints 1 to 3 were mixed and homogenized with various concentrations of the guanidinium salts to be tested.
The batches obtained of the paint thus prepared were inoculated repeatedly with a mixture of different wild-type bacterial strains that are of practical relevance with regard to contamination. These bacteria had previously been isolated from commercial emulsion paints containing conventional preservatives (bacteria mixture 1, Pseudomonas genus), which are microbially contaminated in practice, and commercial so-called preservative-free alkaline emulsion paints (bacteria mixture 2, alkaliphilic bacteria of the Nesterenkonia & Alkalibacterium genus), which are microbially contaminated in practice.
• Pseudomonas spp. (Pseudomonas oleovorans group) DSM 33933 • Pseudomonas aeruginosa DSM 33935 • Pseudomonas oleovorans DSM 33936 • Pseudomonas putida DSM 33937 • Pseudomonas aeruginosa DSM 33938
The inoculum was added to the respective sample in each inoculation at 2% (v/w) as a fresh cell suspension in a physiological saline solution (0.9% NaCl). The cell count of the added inoculum in example 1 was 10^5/ml, in examples 2 to 5 10^9/ml, and in example 6 10^6/ml, each in equal portions consisting of the individual bacterial strains. The cell suspension was produced by growing the individual bacteria at 30° C. for 24 h in liquid culture on a shaker. The medium used to grow the bacteria from bacteria mixture 1 was Müller-Hinton liquid medium. Bacteria from bacteria mixture 2 were grown in Müller-Hinton liquid medium that had been adjusted to pH 9.5-9.7 with an alkaline buffer solution beforehand. After growing, the individual liquid cultures were centrifuged, and the cells were resuspended in physiological saline solution. In order to adjust the mixture to the desired cell count, the individual bacteria suspensions, if necessary, were diluted accordingly before being combined with saline solution. The cell count of the inoculum was determined in each case by chamber counting.
In examples 2 to 6, what is called a repetitive stress test with bacteria was conducted by inoculating the samples at particular time intervals repeatedly with a bacteria suspension having a cell count of 10^9/ml (2% v/w) and monitoring the evolution of the bacteria by a semiquantitative evaluation method. After each inoculation, the samples were incubated at 30° C. for 6 days (bacteria mixture 1 and 3) or 7 and 14 days (bacteria mixture 2), and after these periods bacterial infestation was evaluated semiquantitatively in each case. For this purpose, an aliquot was taken from each sample after homogenization using a sterile plastic inoculation loop (10 μl) and streaked evenly on agar plates (bacteria mixture 1 and 3 on tryptic soy agar, bacteria mixture 2 on DSMZ 31 alkaline nutrient agar). The streaked agar plates were then incubated at 30° C. for 48 h (bacteria mixture 1 and 3) or 5 to 7 days (bacteria mixture 2). After incubation, the bacterial colonies grown on the agar plates were visually evaluated and quantified according to the following scheme:
A total of 3 inoculation cycles was performed in each repetitive stress test.
Inoculation 2% (w/v) with Bacteria Mixture 1, 10^9 CFU/ml
2% (w/v) Inoculation with Bacteria Mixture 1, […]

Measured: Stabilization of the paint against microbial infestation

N=C(N)N [guanidine hydrochloride]
distinct stabilization: table 2, addition of 0.25% by weight to paint 1 having a pH of pH 8.5 | table 2, addition of 0.25% by weight to paint 2 having a pH of 9.0 | table 3, paint 1, pH of 7.5, addition of 0.8% by weight | table 3, paint 2, pH of pH 7.6, addition of 0.8% by weight
